Experimental data taken from PMC5218480 (PLoS ONE, 2017).

Tested on: MV-4-11 cells
Assay: Gene expression microarray analysis (Affymetrix PrimeView) and GSEA
Type: cell-based, human
Parameters: RFU PODN (11730768_x_at) / Fold change /veh PODN (11730768_x_at) / RFU LINC00158 (11744669_a_at) / Fold change /veh LINC00158 (11744669_a_at) / RFU DUSP10 (11751237_a_at) / Fold change /veh DUSP10 (11751237_a_at) / RFU ID3 (11757404_x_at) / Fold change /veh ID3 (11757404_x_at) / RFU PLEKHG5 (11737974_s_at) / Fold change /veh PLEKHG5 (11737974_s_at) / RFU LRRC4B (11730491_at) / Fold change /veh LRRC4B (11730491_at) / RFU GIMAP4 (11747438_a_at) / Fold change /veh GIMAP4 (11747438_a_at) / RFU KRT8 (11758183_x_at) / Fold change /veh KRT8 (11758183_x_at) / RFU CNN1 (11734310_a_at) / Fold change /veh CNN1 (11734310_a_at) / RFU VPS37D (11726825_at) / Fold change /veh VPS37D (11726825_at) / RFU C10orf10 (11716522_x_at) / Fold change /veh C10orf10 (11716522_x_at) / RFU KIR2DL2 /// KIR2DL4 /// KIR2DL5A /// KIR2DL5B /// KIR2DS1 /// KIR2DS2 /// KIR2DS3 /// KIR2DS4 /// KIR3DL3 /// KIR3DL3 /// KIR3DS1 (11738374_at) / Fold change /veh KIR2DL2 /// KIR2DL4 /// KIR2DL5A /// KIR2DL5B /// KIR2DS1 /// KIR2DS2 /// KIR2DS3 /// KIR2DS4 /// KIR3DL3 /// KIR3DL3 /// KIR3DS1 (11738374_at) / RFU C1QL1 (11718748_at) / Fold change /veh C1QL1 (11718748_at) / RFU TMPRSS4 (11747572_a_at) / Fold change /veh TMPRSS4 (11747572_a_at) / RFU HAMP (11756126_x_at) / Fold change /veh HAMP (11756126_x_at) / RFU RNFT2 (11725882_a_at) / Fold change /veh RNFT2 (11725882_a_at) / RFU NR4A2 (11747474_a_at) / Fold change /veh NR4A2 (11747474_a_at) / RFU ABCC12 (11746883_a_at) / Fold change /veh ABCC12 (11746883_a_at) / RFU TMEM136 (11760407_x_at) / Fold change /veh TMEM136 (11760407_x_at) / RFU CLDN22 /// WWC2 (11732394_at) / Fold change /veh CLDN22 /// WWC2 (11732394_at) / RFU HLA-DPB1 (11760878_x_at) / Fold change /veh HLA-DPB1 (11760878_x_at) / RFU SPINT1 (11716480_a_at) / Fold change /veh SPINT1 (11716480_a_at) / RFU GAP43 (11754022_s_at) / Fold change /veh GAP43 (11754022_s_at) / RFU A4GNT (11735810_at) / Fold change /veh A4GNT (11735810_at) / RFU PRB3 (11715151_x_at) / Fold change /veh PRB3 (11715151_x_at) / RFU TUBB4B (11761932_at) / Fold change /veh TUBB4B (11761932_at) / RFU CAPN14 (11732068_a_at) / Fold change /veh CAPN14 (11732068_a_at) / RFU TMCC2 (11721928_a_at) / Fold change /veh TMCC2 (11721928_a_at) / RFU IRGQ (11745062_a_at) / Fold change /veh IRGQ (11745062_a_at) / RFU FAM174B (11720279_a_at) / Fold change /veh FAM174B (11720279_a_at) / RFU TMPRSS4 (11748680_a_at) / Fold change /veh TMPRSS4 (11748680_a_at) / RFU FAM212B (11763350_a_at) / Fold change /veh FAM212B (11763350_a_at) / RFU PLEKHG5 (11743358_a_at) / Fold change /veh PLEKHG5 (11743358_a_at) / RFU ZSCAN30 (11745921_a_at) / Fold change /veh ZSCAN30 (11745921_a_at) / RFU CMKLR1 (11741424_a_at) / Fold change /veh CMKLR1 (11741424_a_at) / RFU LOC101060620 /// MAPK8IP1 (11723275_at) / Fold change /veh LOC101060620 /// MAPK8IP1 (11723275_at) / RFU SPTSSB (11747773_x_at) / Fold change /veh SPTSSB (11747773_x_at) / RFU PRSS12 (11739890_at) / Fold change /veh PRSS12 (11739890_at) / RFU BIN1 (11741810_x_at) / Fold change /veh BIN1 (11741810_x_at) / RFU WNT11 (11732464_a_at) / Fold change /veh WNT11 (11732464_a_at) / RFU C10orf10 (11716521_a_at) / Fold change /veh C10orf10 (11716521_a_at) / RFU C5orf56 (11738089_at) / Fold change /veh C5orf56 (11738089_at) / RFU CYB561 (11721691_x_at) / Fold change /veh CYB561 (11721691_x_at) / RFU ANKRD19P (11752326_a_at) / Fold change /veh ANKRD19P (11752326_a_at) / RFU OR2T12 /// OR2T33 /// OR2T8 (11738714_s_at) / Fold change /veh OR2T12 /// OR2T33 /// OR2T8 (11738714_s_at) / RFU VCAN (11748164_a_at) / Fold change /veh VCAN (11748164_a_at) / RFU JSRP1 (11732532_at) / Fold change /veh JSRP1 (11732532_at) / RFU KRTAP10-11 (11738290_x_at) / Fold change /veh KRTAP10-11 (11738290_x_at) / RFU MYO3A (11730013_a_at) / Fold change /veh MYO3A (11730013_a_at) / RFU EBF3 (11725865_a_at) / Fold change /veh EBF3 (11725865_a_at) / RFU CAMK2N1 (11719241_x_at) / Fold change /veh CAMK2N1 (11719241_x_at) / RFU C5orf56 (11738088_a_at) / Fold change /veh C5orf56 (11738088_a_at) / RFU OLFML3 (11715873_a_at) / Fold change /veh OLFML3 (11715873_a_at) / RFU LOC100653217 /// NTM (11731650_a_at) / Fold change /veh LOC100653217 /// NTM (11731650_a_at) / RFU MAPK11 (11762145_a_at) / Fold change /veh MAPK11 (11762145_a_at) / RFU FIZ1 (11724087_x_at) / Fold change /veh FIZ1 (11724087_x_at) / RFU OASL (11726364_x_at) / Fold change /veh OASL (11726364_x_at) / RFU SOX15 (11748057_x_at) / Fold change /veh SOX15 (11748057_x_at) / RFU CD79A (11719716_a_at) / Fold change /veh CD79A (11719716_a_at) / RFU HIST1H1D (11736915_at) / Fold change /veh HIST1H1D (11736915_at) / RFU CASKIN2 (11723855_a_at) / Fold change /veh CASKIN2 (11723855_a_at) / RFU LOC730098 (11760151_x_at) / Fold change /veh LOC730098 (11760151_x_at) / RFU OR4N2 (11742367_at) / Fold change /veh OR4N2 (11742367_at) / RFU PRRT2 (11749266_a_at) / Fold change /veh PRRT2 (11749266_a_at) / RFU SNX32 (11753110_a_at) / Fold change /veh SNX32 (11753110_a_at) / RFU CDHR5 (11726645_a_at) / Fold change /veh CDHR5 (11726645_a_at) / RFU RCAN1 (11760418_a_at) / Fold change /veh RCAN1 (11760418_a_at) / RFU FAM167A (11723789_a_at) / Fold change /veh FAM167A (11723789_a_at) / RFU FAM26E (11764081_at) / Fold change /veh FAM26E (11764081_at) / RFU ISYNA1 (11749810_s_at) / Fold change /veh ISYNA1 (11749810_s_at) / RFU ACY1 (11761880_at) / Fold change /veh ACY1 (11761880_at) / RFU 11764098_at / Fold change /veh 11764098_at / RFU SAMD14 (11745864_x_at) / Fold change /veh SAMD14 (11745864_x_at) / RFU NPB (11741838_a_at) / Fold change /veh NPB (11741838_a_at) / RFU TMPRSS6 (11731388_a_at) / Fold change /veh TMPRSS6 (11731388_a_at) / RFU KRTAP10-2 (11738614_at) / Fold change /veh KRTAP10-2 (11738614_at) / RFU ARHGAP8 /// PRR5-ARHGAP8 (11727945_x_at) / Fold change /veh ARHGAP8 /// PRR5-ARHGAP8 (11727945_x_at) / RFU KRTAP5-7 /// NADSYN1 (11734609_at) / Fold change /veh KRTAP5-7 /// NADSYN1 (11734609_at) / RFU RASL12 (11751679_a_at) / Fold change /veh RASL12 (11751679_a_at) / RFU CDKN2B (11736163_a_at) / Fold change /veh CDKN2B (11736163_a_at) / RFU PRF1 (11729649_at) / Fold change /veh PRF1 (11729649_at) / RFU, ZNF638 /// ZNF638-IT1 / Fold change vs veh, ZNF638 /// ZNF638-IT1 / RFU, PANK3 / Fold change vs veh, PANK3 / RFU, SH3YL1 / Fold change vs veh, SH3YL1 / RFU, ZEB2 / Fold change vs veh, ZEB2 / RFU, NRIP1 / Fold change vs veh, NRIP1 / RFU, PTTG1IP / Fold change vs veh, PTTG1IP / RFU, CAPN2 / Fold change vs veh, CAPN2 / RFU, MED14 / Fold change vs veh, MED14 / RFU, SNORA58 / Fold change vs veh, SNORA58 / RFU, C1orf63 / Fold change vs veh, C1orf63 / RFU, LRRFIP1 / Fold change vs veh, LRRFIP1 / RFU, NDUFAF7 / Fold change vs veh, NDUFAF7 / RFU, SLC12A2 / Fold change vs veh, SLC12A2 / RFU, IBTK / Fold change vs veh, IBTK / RFU, ESF1 / Fold change vs veh, ESF1 / Fold change vs veh, TMEM50B / RFU, TAOK1 / Fold change vs veh, TAOK1 / RFU, ACBD3 / Fold change vs veh, ACBD3 / RFU, TMA16 / Fold change vs veh, TMA16 / RFU, RWDD3 / Fold change vs veh, RWDD3 / RFU, BCAT1 / Fold change vs veh, BCAT1 / RFU, EDEM3 / Fold change vs veh, EDEM3 / RFU, TMEM33 / Fold change vs veh, TMEM33 / RFU, WDR75 / Fold change vs veh, WDR75 / RFU, AHCTF1 / Fold change vs veh, AHCTF1 / RFU, TFRC / Fold change vs veh, TFRC / RFU, ZDHHC17 / Fold change vs veh, ZDHHC17 / RFU, NOM1 / Fold change vs veh, NOM1 / RFU, ARL8B / Fold change vs veh, ARL8B / RFU, ZBTB11 / Fold change vs veh, ZBTB11 / RFU, TAMM41 / Fold change vs veh, TAMM41 / RFU, KIAA1704 /// LOC100996395 / Fold change vs veh, KIAA1704 /// LOC100996395 / RFU, ING1 / Fold change vs veh, ING1 / RFU, TRMT61B / Fold change vs veh, TRMT61B / RFU, FUBP3 / Fold change vs veh, FUBP3 / RFU, TP53 / Fold change vs veh, TP53 / RFU, TNKS2 / Fold change vs veh, TNKS2 / RFU, ZFP14 / Fold change vs veh, ZFP14 / RFU, ACTR2 / Fold change vs veh, ACTR2 / RFU, PPP3R1 / Fold change vs veh, PPP3R1 / RFU, PIK3R1 / Fold change vs veh, PIK3R1 / RFU, HNRNPA1 / Fold change vs veh, HNRNPA1 / RFU, RNF170 / Fold change vs veh, RNF170 / RFU, ZNF28 / Fold change vs veh, ZNF28 / RFU, RNGTT / Fold change vs veh, RNGTT / RFU, OGT / Fold change vs veh, OGT / RFU, BRD1 / Fold change vs veh, BRD1 / RFU, MARS / Fold change vs veh, MARS / RFU, ZNF655 / Fold change vs veh, ZNF655 / RFU, FAHD1 / Fold change vs veh, FAHD1 / RFU, BDP1 / Fold change vs veh, BDP1 / RFU, LRRCC1 / Fold change vs veh, LRRCC1 / RFU, ARID1A / Fold change vs veh, ARID1A / RFU, ZNF146 / Fold change vs veh, ZNF146 / RFU, ZNF330 / Fold change vs veh, ZNF330 / RFU, GPN3 / Fold change vs veh, GPN3 / RFU, C9orf123 / Fold change vs veh, C9orf123 / RFU, N4BP2L2 / Fold change vs veh, N4BP2L2 / RFU, ARFIP1 / Fold change vs veh, ARFIP1 / RFU, FAM179B / Fold change vs veh, FAM179B / RFU, BCL10 / Fold change vs veh, BCL10 / RFU, UHRF1BP1L / Fold change vs veh, UHRF1BP1L / RFU, BET1 / Fold change vs veh, BET1 / RFU, CNOT2 / Fold change vs veh, CNOT2 / RFU, ZNF268 / Fold change vs veh, ZNF268 / Fold change vs veh, ZNF507 / RFU, DGCR2 / Fold change vs veh, DGCR2 / RFU, WDSUB1 / Fold change vs veh, WDSUB1 / Fold change vs veh, HSP90B1 /// MIR3652 / RFU, ADSS / Fold change vs veh, ADSS / RFU, GK / Fold change vs veh, GK / RFU, ZNF148 / Fold change vs veh, ZNF148 / RFU, TAF9 / Fold change vs veh, TAF9 / RFU, SLC1A5 / Fold change vs veh, SLC1A5 / RFU, SLMO2 / Fold change vs veh, SLMO2 / RFU, ABCC4 / Fold change vs veh, ABCC4 / RFU, LOC101060439 /// RAP1B / Fold change vs veh, LOC101060439 /// RAP1B / RFU, RFX7 / Fold change vs veh, RFX7 / RFU, GTPBP10 / Fold change vs veh, GTPBP10 / RFU, CNEP1R1 / Fold change vs veh, CNEP1R1 / RFU, BIVM-ERCC5 /// ERCC5 / Fold change vs veh, BIVM-ERCC5 /// ERCC5 / RFU, ILF3 / Fold change vs veh, ILF3 / RFU 11762660_at / Fold change /veh 11762660_at / RFU VCAN (11757783_s_at) / Fold change /veh VCAN (11757783_s_at) / RFU DDX43 (11728927_at) / Fold change /veh DDX43 (11728927_at) / RFU KRT8 (11758188_x_at) / Fold change /veh KRT8 (11758188_x_at) / RFU NKD1 (11759106_at) / Fold change /veh NKD1 (11759106_at) / RFU SRD5A1 (11742802_a_at) / Fold change /veh SRD5A1 (11742802_a_at) / RFU TPSAB1 /// TPSB2 (11721975_s_at) / Fold change /veh TPSAB1 /// TPSB2 (11721975_s_at) / RFU GSTM3 (11746129_a_at) / Fold change /veh GSTM3 (11746129_a_at) / RFU IL23R (11737362_x_at) / Fold change /veh IL23R (11737362_x_at) / RFU TMEM51 (11727254_a_at) / Fold change /veh TMEM51 (11727254_a_at) / RFU PIWIL2 (11732686_x_at) / Fold change /veh PIWIL2 (11732686_x_at) / RFU ORM1 (11744905_x_at) / Fold change /veh ORM1 (11744905_x_at) / RFU CCDC152 (11743942_at) / Fold change /veh CCDC152 (11743942_at) / RFU ECM1 (11717891_a_at) / Fold change /veh ECM1 (11717891_a_at) / RFU IL23R (11748794_a_at) / Fold change /veh IL23R (11748794_a_at) / RFU TNFAIP8L3 (11732012_x_at) / Fold change /veh TNFAIP8L3 (11732012_x_at) / RFU MBOAT4 (11741988_at) / Fold change /veh MBOAT4 (11741988_at) / RFU 11764193_at / Fold change /veh 11764193_at / RFU TMEM53 (11763286_at) / Fold change /veh TMEM53 (11763286_at) / RFU MAGEB2 (11727129_at) / Fold change /veh MAGEB2 (11727129_at) / RFU TMEM200A (11744735_a_at) / Fold change /veh TMEM200A (11744735_a_at) / RFU CCDC152 (11751479_a_at) / Fold change /veh CCDC152 (11751479_a_at) / RFU FAM211A (11726209_a_at) / Fold change /veh FAM211A (11726209_a_at) / RFU RGS16 (11746705_a_at) / Fold change /veh RGS16 (11746705_a_at) / RFU VCAN (11755009_s_at) / Fold change /veh VCAN (11755009_s_at) / RFU RHOB (11743442_s_at) / Fold change /veh RHOB (11743442_s_at) / RFU RGS16 (11720943_a_at) / Fold change /veh RGS16 (11720943_a_at) / RFU RGS16 (11720944_at) / Fold change /veh RGS16 (11720944_at) / RFU, VPS4B / Fold change vs veh, VPS4B / RFU, CREB1 / Fold change vs veh, CREB1 / RFU, DNAJC13 / Fold change vs veh, DNAJC13 / RFU, GNAQ / Fold change vs veh, GNAQ / RFU, CDK5R1 / Fold change vs veh, CDK5R1 / RFU, ZRANB3 / Fold change vs veh, ZRANB3 / RFU, CUL4A / Fold change vs veh, CUL4A / RFU, CCNY / Fold change vs veh, CCNY / RFU, UFL1 / Fold change vs veh, UFL1 / RFU, COG3 / Fold change vs veh, COG3 / RFU, DIAPH2 / Fold change vs veh, DIAPH2 / RFU, SKA2 / Fold change vs veh, SKA2 / RFU, AFF3 / Fold change vs veh, AFF3 / RFU, LMF1 / Fold change vs veh, LMF1 / RFU, IPO11 / Fold change vs veh, IPO11 / RFU, DFFB / Fold change vs veh, DFFB / RFU, FOXP1 / Fold change vs veh, FOXP1 / RFU, CARD8 / Fold change vs veh, CARD8 / RFU, STRN3 / Fold change vs veh, STRN3 / RFU, ADK / Fold change vs veh, ADK / RFU, RASSF2 / Fold change vs veh, RASSF2 / RFU, WIPF1 / Fold change vs veh, WIPF1 / RFU, LARP1B / Fold change vs veh, LARP1B / RFU, RASA1 / Fold change vs veh, RASA1 / RFU, RB1 / Fold change vs veh, RB1 / RFU, PPFIA1 / Fold change vs veh, PPFIA1 / RFU, MAT2A / Fold change vs veh, MAT2A / RFU, CCT5 / Fold change vs veh, CCT5 / RFU, WDR92 / Fold change vs veh, WDR92 / RFU, CUX1 / Fold change vs veh, CUX1 / RFU, TTC7A / Fold change vs veh, TTC7A / RFU, TMEM135 / Fold change vs veh, TMEM135 / RFU, DEPTOR / Fold change vs veh, DEPTOR / RFU, CPM / Fold change vs veh, CPM / RFU, DNAJB6 / Fold change vs veh, DNAJB6 / RFU, CACNA2D3 / Fold change vs veh, CACNA2D3 / RFU, DTX4 / Fold change vs veh, DTX4 / RFU, TFCP2 / Fold change vs veh, TFCP2 / RFU, GMCL1 /// GMCL1P1 / Fold change vs veh, GMCL1 /// GMCL1P1 / RFU, AEBP2 / Fold change vs veh, AEBP2 / RFU, SNHG1 /// SNORD22 /// SNORD25 /// SNORD26 /// SNORD27 /// SNORD28 /// SNORD29 /// SNORD31 / Fold change vs veh, SNHG1 /// SNORD22 /// SNORD25 /// SNORD26 /// SNORD27 /// SNORD28 /// SNORD29 /// SNORD31 / Fold change (Aza/veh), C12orf56 (ProbeSet 11735607_a_at) / Fold change (ACY-1035/veh), C12orf56 (ProbeSet 11735607_a_at) / Fold change (Aza/veh), FGFR1OP (ProbeSet 11751329_s_at) / Fold change (ACY-1035/veh), FGFR1OP (ProbeSet 11751329_s_at) / Fold change (Aza/veh), VPS36 (ProbeSet 11739960_a_at) / Fold change (ACY-1035/veh), VPS36 (ProbeSet 11739960_a_at) / RFU SYPL1 (11715823_x_at) / Fold change /veh SYPL1 (11715823_x_at) / RFU IGFBP7 (11715501_s_at) / Fold change /veh IGFBP7 (11715501_s_at) / RFU REEP3 (11722064_at) / Fold change /veh REEP3 (11722064_at) / RFU IGLL1 (11728026_x_at) / Fold change /veh IGLL1 (11728026_x_at): dose or concentration left out as unconfirmed
Details: ProbeSet 11754607_s_at; LIST B

Nc1ccc(-c2cccs2)cc1NC(=O)c1ccc2c(c1)cc(C1CC1)n2CCN1CCOCC1 [ACY-1035]
Fold change vs veh, HSP90B1 /// MIR3652: 0.87
